In the experiment the target is T1, Receptor-type tyrosine-protein phosphatase C (Homo sapiens, UniProt P08575).
T1 sequence (P08575 whole entry): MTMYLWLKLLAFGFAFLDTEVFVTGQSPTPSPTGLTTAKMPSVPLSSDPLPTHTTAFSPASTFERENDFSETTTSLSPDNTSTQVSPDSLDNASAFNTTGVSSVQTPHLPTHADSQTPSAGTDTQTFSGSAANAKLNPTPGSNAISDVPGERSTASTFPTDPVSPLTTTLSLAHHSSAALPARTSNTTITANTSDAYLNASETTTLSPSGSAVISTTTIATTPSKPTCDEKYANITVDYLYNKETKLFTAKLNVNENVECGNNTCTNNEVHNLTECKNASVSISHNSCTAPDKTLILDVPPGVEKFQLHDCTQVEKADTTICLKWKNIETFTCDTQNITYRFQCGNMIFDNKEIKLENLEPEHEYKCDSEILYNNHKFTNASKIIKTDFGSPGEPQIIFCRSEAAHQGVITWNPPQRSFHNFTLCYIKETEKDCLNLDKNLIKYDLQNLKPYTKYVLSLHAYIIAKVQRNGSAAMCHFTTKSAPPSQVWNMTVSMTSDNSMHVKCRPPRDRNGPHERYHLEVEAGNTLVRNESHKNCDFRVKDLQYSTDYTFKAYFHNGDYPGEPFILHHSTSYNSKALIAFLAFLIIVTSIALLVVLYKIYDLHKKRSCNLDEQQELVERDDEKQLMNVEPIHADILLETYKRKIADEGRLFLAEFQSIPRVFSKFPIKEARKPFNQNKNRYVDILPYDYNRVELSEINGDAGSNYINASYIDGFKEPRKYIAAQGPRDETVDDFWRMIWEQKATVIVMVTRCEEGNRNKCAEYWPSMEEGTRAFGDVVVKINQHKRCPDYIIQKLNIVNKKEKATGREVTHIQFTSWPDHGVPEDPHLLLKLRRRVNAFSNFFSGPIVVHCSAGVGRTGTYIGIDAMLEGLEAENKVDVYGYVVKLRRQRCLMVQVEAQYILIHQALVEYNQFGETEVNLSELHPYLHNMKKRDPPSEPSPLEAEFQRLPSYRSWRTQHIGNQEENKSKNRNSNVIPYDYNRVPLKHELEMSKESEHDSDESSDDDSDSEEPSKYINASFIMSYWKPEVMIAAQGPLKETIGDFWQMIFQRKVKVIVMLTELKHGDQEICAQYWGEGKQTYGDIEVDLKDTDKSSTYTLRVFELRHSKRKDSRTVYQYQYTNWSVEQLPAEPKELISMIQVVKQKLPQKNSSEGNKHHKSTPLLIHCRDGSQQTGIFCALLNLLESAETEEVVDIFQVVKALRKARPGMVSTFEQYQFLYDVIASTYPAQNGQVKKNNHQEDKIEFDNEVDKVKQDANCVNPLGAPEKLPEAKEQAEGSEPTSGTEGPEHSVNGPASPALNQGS
Kind of experiment: Phosphatase Activity Assay. An excerpt: Protein phosphatases were purchased from Upstate Biotechnology (Lake Placid, NY).

The structures appear in SMILES notation.

In BindingDB's records for doi:10.1074/jbc.M809633200 (United States Army Medical Research Institute of Infectious …, 2009) one finds IC50 data, which are given here for 3 molecules.

As a reminder, the IC50 is the concentration needed to halve the response being measured. Lower therefore signals inhibition by little substance.

`O=C1C(=O)c2ccccc2-c2ccccc21` returned an IC50 of 300 nM.
To `O=C1C(=O)c2cccc([N+](=O)[O-])c2-c2ccccc21` [4-Nitro-phenanthrene-9,10 dione] belongs 6000 nM; to `CC(C)(C)C(=O)Nc1ccc2c(c1)C(=O)C(=O)c1ccccc1-2` [N-(9,10-Dioxo-9,10-dihydro-phenanthrene-2-yl)-2,2-dimethyl-propionamide], 400 nM.
